# Experiments:
# hGPR119 = biological target: T1, hGPR119 (Homo sapiens, UniProt Q8TDV5); assay: HTRF assay for direct cAMP measurement in CHO-K1 cells stably expressing the GPR119 receptor; type: cell-based
# T1 construct: expressed in transfected cells
# T1 sequence (Q8TDV5 2-335): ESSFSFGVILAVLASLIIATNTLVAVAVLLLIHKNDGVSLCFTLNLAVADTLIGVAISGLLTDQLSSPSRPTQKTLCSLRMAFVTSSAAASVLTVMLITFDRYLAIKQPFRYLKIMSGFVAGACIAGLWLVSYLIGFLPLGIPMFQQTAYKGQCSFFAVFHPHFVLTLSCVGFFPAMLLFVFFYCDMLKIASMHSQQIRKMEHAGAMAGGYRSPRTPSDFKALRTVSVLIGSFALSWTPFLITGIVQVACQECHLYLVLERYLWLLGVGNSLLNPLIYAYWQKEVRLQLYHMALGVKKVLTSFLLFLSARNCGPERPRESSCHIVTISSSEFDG
# Method: GPR119 agonists were evaluated in an HTRF® cAMP detection assay (Cisbio, cAMP Dynamic 2 Assay Kit; #62AM4PEJ) according to the manufacturer's instructions using CHO-K1 cells stably expressing the GPR119 receptor. CHO-K1 cells were transduced with a lentiviral vector encoding the nucleotide sequence of GPR119 (NCBI mRNA and protein reference sequences: NM_178471.2 & NP_848566). The N-terminus of the GPR119 nucleotide sequence was modified to replace the first, methionine-coding, codon with a nucleotide sequence coding for a standard, nine amino acid, hemagglutinin tag. Following transduction, cells expressing the GPR119 receptor were isolated and a single clone was isolated following standard dilution-cloning procedures. On the day of the assay, cultured CHO-GPR119 cells were harvested, suspended in assay buffer and plated into 384-well assay plates (PerkinElmer® Proxiplate® #6008280) at a density of 2,000 cells per well. A cAMP standard curve was added to each plate. Test compounds were dissolved in DMSO, serially diluted in DMSO and then diluted in assay buffer before addition to the cells. Test compounds were evaluated in triplicate, using 10-point, 5-fold serial dilutions starting at 10 μM. The final DMSO concentration in the assay was 0.5%. Compounds and cells were incubated for 1 h at room temperature and then detection reagents were added to each well (cAMP-D2 in cell lysis buffer, followed by europium cryptate-labeled anti-cAMP antibody). Plates were then incubated at room temperature for 1 h prior to reading. Time-resolved fluorescence measurements were collected on PerkinElmer Envision™ or BMG Pherastar™ microplate readers. The compound N-(2-fluoro-4-(methylsulfonyl) phenyl)-6-(4-(3-isopropyl-1,2,4-oxadiazol-5-yl)piperidin-1-yl)-5-nitropyrimidin-4-amine was used as a positive control in each runset while assay buffer containing 0.5% DMSO was used as the negative control. The HTRF® assay was used to determine EC50 values for GPR119 agonists.
# male 129SVE mice [1] = assay: GIP release in male 129SVE mice (plasma total GIP, ELISA); type: in vivo; details: 3 or 30 mg/kg p.o.; blood sample after 45 min
# Method: Male 129SVE mice (approximately 8 weeks old) were fasted for 18 h and randomly grouped (n=6) to receive a GPR119 agonist (Compound 17) at 3 or 30 mg/kg. Compound 17 was delivered orally via a gavage needle (p.o., 4 mL/kg), and after 45 min a blood sample was collected to determine plasma total GIP levels. A separate control group received vehicle (PET (80% PEG: 10% Ethanol: 10% Tween80™)). Plasma GIP levels were determined using a GIP (total) ELISA kit from Millipore.
# male 129SVE mice [2] = assay: Oral glucose tolerance test (oGTT), glucose homeostasis in male 129SVE mice; type: in vivo
# Method: Male 129SVE mice (approximately 8 weeks old) were fasted for 18 h and randomly grouped (n=6) to receive a GPR119 agonist (Compound 17) at 3 or 10 mg/kg (mg/kg body weight). The compound was delivered orally via a gavage needle (p.o., 4 mL/kg) 30 minutes prior to glucose bolus (3 g/kg) (time=−30 min in FIG. 1), with a separate group receiving vehicle (20% hydroxypropyl-beta-cyclodextrin (HPCD)) as control. At time 0 min the glucose bolus was administered. Levels of blood glucose were assessed using a glucometer (One-Touch Ultra™, LifeScan) at time −30 min (prior to compound administration), at 0 min (at time when glucose bolus was given), and at 20, 40, 60, 120 min post glucose bolus. Plasma glucose levels (Table B) and the glucose excursion curve (FIG. 1) are shown. The reduction in the glucose excursion area under the curve (AUC) from −30 to 120 min in GPR119 agonist-treated animals relative to vehicle is shown in FIG. 2.
structure (smiles),measurement,setting,value
"CCc1cnc(N2CCN([C@H]3CC[C@H](COc4ccc(S(C)(=O)=O)cc4)CC3)CC2)nc1 [Compound 5, 5-Ethyl-2-(4-((1r,4r)-4-((4-(methylsulfonyl)phenoxy)methyl)cyclohexyl)piperazin-1-yl)pyrimidine]",EC50,hGPR119,0.106 µM
"CS(=O)(=O)c1ccc(OC[C@H]2CC[C@H](N3CCN(c4ncc(Cl)cn4)CC3)CC2)c(F)c1 [Compound 17, 5-Chloro-2-(4-((1r,4r)-4-((2-fluoro-4-(methylsulfonyl)phenoxy)methyl)cyclohexyl)piperazin-1-yl)pyrimidine]",EC50,hGPR119,0.0518 µM
same,Effect on GIP release (plasma total GIP),male 129SVE mice [1],stimulated the release of GIP
same,"Plasma Glucose, Mean","male 129SVE mice [2]; 3 mg/kg p.o., 20 min post glucose bolus",263.5 mg/dL
same,"Plasma Glucose, Mean","male 129SVE mice [2]; 3 mg/kg p.o., 40 min post glucose bolus",304.8333 mg/dL
same,"Plasma Glucose, Mean","male 129SVE mice [2]; 3 mg/kg p.o., 60 min post glucose bolus",247.6667 mg/dL
same,"Plasma Glucose, Mean","male 129SVE mice [2]; 3 mg/kg p.o., 120 min post glucose bolus",166.3333 mg/dL
same,"Plasma Glucose, Mean","male 129SVE mice [2]; 3 mg/kg p.o., time relative to glucose bolus 0 min",88.0 mg/dL
same,"Plasma Glucose, Mean","male 129SVE mice [2]; 3 mg/kg p.o., time relative to glucose bolus −30 min (prior to compound administration), oGTT, glucose 3 g/kg",67.33 mg/dL
same,"Plasma Glucose, Mean","male 129SVE mice [2]; 10 mg/kg p.o., 20 min post glucose bolus",203.8333 mg/dL
same,"Plasma Glucose, Mean","male 129SVE mice [2]; 10 mg/kg p.o., 40 min post glucose bolus",234.8333 mg/dL
same,"Plasma Glucose, Mean","male 129SVE mice [2]; 10 mg/kg p.o., 60 min post glucose bolus",186.1667 mg/dL
same,"Plasma Glucose, Mean","male 129SVE mice [2]; 10 mg/kg p.o., 120 min post glucose bolus",167.3333 mg/dL
same,"Plasma Glucose, Mean","male 129SVE mice [2]; 10 mg/kg p.o., time relative to glucose bolus 0 min",96.33 mg/dL
same,"Plasma Glucose, Mean","male 129SVE mice [2]; 10 mg/kg p.o., time relative to glucose bolus −30 min (prior to compound administration), oGTT, glucose 3 g/kg",68.5 mg/dL
same,Effect on blood glucose after challenge with glucose,"male 129SVE mice [2]; 3 or 10 mg/kg p.o., 30 minutes prior to glucose bolus, relative to vehicle",lowered blood glucose
"N#Cc1ccc(OC[C@H]2CC[C@H](N3CCN(c4ncc(C(F)(F)F)cn4)CC3)CC2)cc1 [Compound 23, 4-(((1r,4r)-4-(4-(5-(Trifluoromethyl)pyrimidin-2-yl)piperazin-1-yl)cyclohexyl)methoxy) benzonitrile]",EC50,hGPR119,1.38 µM
"Cc1nc(S(C)(=O)=O)ccc1OC[C@H]1CC[C@H](N2CCN(c3ncc(C(F)(F)F)cn3)C[C@@H]2C)CC1 [Compound 26, 2-((S)-3-Methyl-4-((1r,4S)-4-((2-methyl-6-(methylsulfonyl)pyridin-3-yloxy)methyl)cyclohexyl)piperazin-1-yl)-5-(trifluoromethyl)pyrimidine]",EC50,hGPR119,0.6 µM
"C[C@@H]1CN(c2ncc(Cl)cn2)CCN1[C@H]1CC[C@H](COc2ccc(S(C)(=O)=O)cc2F)CC1 [Compound 31, 5-Chloro-2-((R)-4-((1r,4R)-4-((2-fluoro-4-(methylsulfonyl)phenoxy)methyl)cyclohexyl)-3-methylpiperazin-1-yl)pyrimidine]",EC50,hGPR119,0.0701 µM
"CN(C)C(=O)c1ccc(OC[C@H]2CC[C@H](N3CCN(C(=O)OC(C)(C)C)CC3)CC2)c(F)c1 [Compound 38, tert-Butyl 4-((1r,4r)-4-((4-(dimethylcarbamoyl)-2-fluorophenoxy)methyl)cyclohexyl)piperazine-1-carboxylate]",EC50,hGPR119,0.219 µM
"C[C@@H](OC(=O)N1CCN([C@H]2CC[C@H](COc3ccc(-n4cnnn4)cc3F)CC2)CC1)C(F)(F)F [Compound 44, (R)-1,1,1-Trifluoropropan-2-yl 4-((1r,4R)-4-((2-fluoro-4-(1H-tetrazol-1-yl)phenoxy)methyl)cyclohexyl) piperazine-1-carboxylate]",EC50,hGPR119,0.0222 µM
"CS(=O)(=O)c1ccc(OC[C@H]2CC[C@H](N3CCN(c4nc(C(F)(F)F)no4)CC3)CC2)c(F)c1 [Compound 64, 5-(4-((1r,4r)-4-((2-Fluoro-4-(methylsulfonyl)phenoxy)methyl)cyclohexyl)piperazin-1-yl)-3-(trifluoromethyl)-1,2,4-oxadiazole]",EC50,hGPR119,0.0137 µM
